As a reminder, the Kd is the concentration at which binding is half-saturated.

This is an account of results in article PMC6148235, “A structural investigation of NRZ mediated apoptosis regulation in zebrafish” (Cell Death & Disease, 2018).

Experiment [1] concerns the target T1, NRZ D79A (Danio rerio, UniProt Q8UWD5, D79A).
T1 sequence (Q8UWD5 1-148 D79A): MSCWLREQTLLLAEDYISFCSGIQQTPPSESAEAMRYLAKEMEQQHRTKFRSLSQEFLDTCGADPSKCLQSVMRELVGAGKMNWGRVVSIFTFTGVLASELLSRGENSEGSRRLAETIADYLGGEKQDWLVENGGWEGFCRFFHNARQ
The experiment is described as follows: ITC affinity measurement of NRZ: BH3 motif interactions (mutant D79A). The format is binding, zebrafish (Danio rerio). On the set-up: key to NRZ D79A KD: NB: no binding. To be noted: MicroCal iTC200, 25 °C, 25 mM HEPES pH 7.5, 150 mM NaCl, 2 mM BME, protein 30 μM, peptide 300 μM, 19 injections of 2.0 μl, means of three replicates with standard error. The method, then:
(§1) NRZ mutants D79A and R86A were codon-optimized and synthesized (Genscript) and subsequently cloned into the pGEX-6P-3 vector (Invitrogen). Expression and purification were performed using the same protocol as for wild-type NRZ.
(§2) Binding affinities were measured by isothermal titration calorimetry (ITC) employing a MicroCal iTC200 system (GE Healthcare) at 25 °C using wt-NRZ, and NRZ mutants D79A and R86A in 25 mM HEPES, pH 7.5, 150 mM NaCl, 2 mM BME at a final concentration of 30 μM as previously described. BH3 motif peptide ligands were used at a concentration of 300 μM and titrated using 19 injections of 2.0 μl of ligand. All affinity measurements were performed in triplicate. Protein concentrations were measured using a Nanodrop UV spectrophotometer (Thermo Scientific, Scoresbury, Australia) at a wavelength of 280 nm. Peptide concentrations were calculated based on the dry peptide weight after synthesis. The zebrafish BH3-motif peptides used were commercially synthesized and were purified to a final purity of 95% (GenScript, Piscataway, New Jersey, US). zBim: […] (UniProt accession code B2KKY9, residues 117–142), zPuma: […] (accession code Q0GKC9, residues 123–148), zBik: […] (accession code Q5RGV6, residues 30–55), zBax: […] (accession code Q9I9N4, residues 52–79), zBid: […] (accession code Q0GKC5, residues 85–112), zBad: […] (accession code A7MCM4, 88–113 residues), zBmf: […] (accession code Q0GKC7, residues 89–114), zNoxa: […] (accession code Q0GKC8, residues 5–30), zBok: […] (accession code Q7T381, residues 60–85), zBeclin: […] (accession code F1RCP1, residues 102–127), zBcl-wav: […] (accession code D2Y5Q2, residues 42–67).

Experiment [2] deals with T2, NRZ R86A (Danio rerio, UniProt Q8UWD5, R86A).
T2 sequence (Q8UWD5 1-148 R86A): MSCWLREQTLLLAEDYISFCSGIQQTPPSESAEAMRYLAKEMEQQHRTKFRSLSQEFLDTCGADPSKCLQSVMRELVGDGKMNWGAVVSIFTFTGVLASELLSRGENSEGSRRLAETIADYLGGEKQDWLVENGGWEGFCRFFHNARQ
The experiment is described as follows: ITC affinity measurement of NRZ: BH3 motif interactions (mutant R86A). The format is binding, zebrafish (Danio rerio). More on the design: key to NRZ R86A KD: NB: no binding. To be noted: MicroCal iTC200, 25 °C, 25 mM HEPES pH 7.5, 150 mM NaCl, 2 mM BME, protein 30 μM, peptide 300 μM, 19 injections of 2.0 μl, means of three replicates with standard error. How it is done:
as §1, §2

For experiment [3], the target named is T3, wt-NRZ (Danio rerio, UniProt Q8UWD5).
T3 sequence (Q8UWD5 1-148): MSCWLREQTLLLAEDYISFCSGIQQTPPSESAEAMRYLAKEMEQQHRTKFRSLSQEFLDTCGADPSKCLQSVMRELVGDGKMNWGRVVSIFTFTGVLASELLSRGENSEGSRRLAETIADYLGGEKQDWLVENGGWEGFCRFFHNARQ
The experiment is described as follows: ITC affinity measurement of NRZ: BH3 motif interactions (wild type). The conditions noted are these: MicroCal iTC200, 25 °C, 25 mM HEPES pH 7.5, 150 mM NaCl, 2 mM BME, NRZ 30 μM, peptide 300 μM, 19 injections of 2.0 μl, means of three replicates with standard error. The format is binding, zebrafish (Danio rerio). How it is done: as §2

Experiment [4] concerns the target NRZ D79A (zebrafish (Danio rerio)) (UniProt Q8UWD5). The experiment is described as follows: ITC; MicroCal iTC200, 25 °C; NRZ (wt, D79A or R86A) at 30 μM in 25 mM HEPES pH 7.5, 150 mM NaCl, 2 mM BME; BH3 peptide at 300 μM titrated in 19 injections of 2.0 μl; triplicate.
Experiment [5] addresses NRZ R86A (zebrafish (Danio rerio)) (UniProt Q8UWD5). The description is as above.
Experiment [6] deals with NRZ (zebrafish pro-survival Bcl-2 protein), lacking the 28 C-terminal residues (zebrafish (Danio rerio)). The experiment is described as above.

Residues, ends and D or L forms follow the SMILES beside them. No end group written: not given here.

For the molecule `CC[C@H](C)[C@H](NC(=O)[C@H](CCC(N)=O)NC(=O)[C@H](CCC(N)=O)NC(=O)[C@H](CC(C)C)NC(=O)[C@H](CS)NC(=O)[C@H](CCC(N)=O)NC(=O)[C@H](C)NC(=O)[C@H](CC(C)C)NC(=O)[C@H](CCCNC(=N)N)NC(=O)[C@H](CCCCN)NC(=O)[C@H](Cc1c[nH]cn1)NC(=O)[C@H](CO)NC(=O)[C@@H]1CCCN1C(=O)[C@H](CC(=O)O)NC(=O)[C@H](CS)NC(=O)[C@H](CC(C)C)NC(=O)[C@@H](N)CCC(=O)O)C(=O)NCC(=O)N[C@@H](CC(=O)O)C(=O)N[C@@H](CCC(=O)O)C(=O)N[C@@H](CC(C)C)C(=O)N[C@@H](CC(=O)O)C(=O)NCC(=O)N[C@@H](CC(N)=O)C(=O)N[C@@H](C)C(=O)N[C@@H](CCC(N)=O)C(=O)N[C@@H](CC(C)C)C(=O)N[C@@H](CCC(N)=O)C(=O)O` [Bax] (H-ELCDPSHKRLAQCLQQIGDELDGNAQLQ-OH), the dissociation constant (Kd) is 264 ± 42 nM in experiment [1] and 4600 ± 440 nM in experiment [2].
As for ALPPEMVVARELRRIGDEFNRLYCEA [Bim], the Kd stood at 13 ± 4 nM in experiment [1] and 168 ± 8 nM in experiment [2].
As for ALWAAKKYGQQLRRMSDEFDKGQMKR [Bad], the results for the Kd in experiment [1] and in experiment [2] were 3330 ± 41 nM and 4800 ± 88 nM, respectively.
AQSVETLIGQKLQLIGDQFYQEHIMH [Bmf]: the “WT NRZ KD” value in experiment [3] is “no detectable affinity and no affinity and NB”. In addition, the “NRZ D79A KD” value in experiment [1] is listed as “NB”. Further, in experiment [2], the “NRZ R86A KD” value is given as “NB”.
DGGTMENLSRRLKVTSNLFDIMSGQT [Beclin]: the “WT NRZ KD” value in experiment [3] was “no detectable affinity and NB”; in experiment [3] (listed as Beclin-1), “does not bind”. Further, the “NRZ D79A KD” value in experiment [1] is recorded as “NB”. The “NRZ R86A KD” value in experiment [2] is given as “NB”.
Consider EARAAREMAAELIRIADLLEQSVLSQAA [Bid], for which the Kd in experiment [1] was found to be 220 ± 16 nM.
For EEQAVERVAVQLRTIGDEMNAVFLQR [Puma], the values for the dissociation constant (Kd) in experiment [1] and in experiment [2] were 117 ± 5 nM and 2770 ± 162 nM, respectively.
For EQTAVVECAQQLRNIGDLLNWKYKLL [Noxa], in that order: 335 ± 31 nM and 510 ± 41 nM.
Consider LCPAPSRASAALRHAGDELLIRFPIF [Bcl-wav], for which the Kd in experiment [3] worked out at 3570 ± 162 nM. Also, the “NRZ D79A KD” value in experiment [1] is listed as “ablated”. Moreover, in experiment [2], the “NRZ R86A KD” value is recorded as “ablated”.
With NMRVTQTIGRQLAQIGDEMDNKWRQE [Bik], the Kd in experiment [1] worked out at 14 ± 3 nM; in experiment [2], 17 ± 3 nM.
For the molecule EQTAVVECAQQLRNIGDLLNWKYKLL [zNoxa BH3 motif peptide], the Kd in experiment [4] stood at 335 nM; in experiment [5], 510 nM.
Turning to NMRVTQTIGRQLAQIGDEMDNKWRQE [zBik BH3 motif peptide], the results for the Kd in experiment [4], in experiment [5] and in experiment [6] were 14 nM, 17 nM and 12 nM, respectively.
As to ELCDPSHKRLAQCLQQIGDELDGNAQLQ [zBax BH3 motif peptide], the values for the Kd in experiment [4] and in experiment [5] were 264 nM and 4600 nM, respectively.
In the case of LCPAPSRASAALRHAGDELLIRFPIF [zBcl-wav BH3 motif peptide], the dissociation constant Kd in experiment [6] came to 3570 nM.
As to ALPPEMVVARELRRIGDEFNRLYCEA [zBim BH3 motif peptide], the results for the Kd in experiment [4], in experiment [5] and in experiment [6] were 13 nM, 168 nM and 41 nM, respectively.
As to EEQAVERVAVQLRTIGDEMNAVFLQR [zPuma BH3 motif peptide], the dissociation constant Kd in experiment [4] stood at 117 nM; in experiment [5], 2770 nM.
For ALWAAKKYGQQLRRMSDEFDKGQMKR [zBad BH3 motif peptide], in that order: 3330 nM and 4800 nM.
For the molecule EARAAREMAAELIRIADLLEQSVLSQAA [zBid BH3 motif peptide], the figures for the equilibrium dissociation constant (Kd) in experiment [4] and in experiment [6] were 220 nM and 409 nM, respectively.
